Results from the kinase profiling compilation of Christmann-Franck et al. (2016).
Each block holds one molecule with its values, some of them ahead of it.

Key:
Test in all cases: radiometric filter-binding kinase assay
PHKG1 or PHKG2 (rabbit) = settings: ATP 100 µM, accession and sequence are those of the human protein
MAPK14 (human) = MAPK14 (human) (UniProt Q16539); settings: ATP 100 µM
DYRK1A (rat) = settings: ATP 100 µM, accession and sequence are those of the human protein
CSK (human) = CSK (human) (UniProt P41240); settings: ATP 100 µM
[1] = target: CSNK2A1 or CSNK2A2 (human) (UniProt P19784+P68400); settings: ATP 100 µM
RPS6KA1 (rat) = settings: ATP 100 µM, accession and sequence are those of the human protein
RPS6KA5 KD1 KD2 (human) = RPS6KA5 KD1 KD2 (human) (UniProt O75582); settings: ATP 100 µM
MAPK8 (human) = MAPK8 (human) (UniProt P45983); settings: ATP 100 µM
ROCK2 (rat) = settings: ATP 100 µM, accession and sequence are those of the human protein
PRKG1 (human) = PRKG1 (human) (UniProt Q13976); settings: compound 10.0 µM; ATP 100 µM
AKT1 (human) = AKT1 (human) (UniProt P31749); settings: ATP 100 µM
MAPK11 (human) = MAPK11 (human) (UniProt Q15759); settings: ATP 100 µM
PDPK1 (human) = PDPK1 (human) (UniProt O15530); settings: ATP 100 µM
CDK2 CCNA2 (human) = CDK2 CCNA2 (human) (UniProt P24941+P20248); settings: ATP 100 µM
PRKAA1 or PRKAA2 (rat) = settings: ATP 100 µM, accession and sequence are those of the human protein
[2] = system: SGK1 (human), O00141 [S422D]; settings: ATP 100 µM
MAPKAPK5 (human) = MAPKAPK5 (human) (UniProt Q8IW41); settings: ATP 100 µM
[3] = system: RPS6KB1 (human), P23443 [T412E]; settings: ATP 100 µM
CSNK1A1 (rat) = settings: ATP 100 µM, accession and sequence are those of the human protein
MAP2K1 (rabbit) = settings: ATP 100 µM, accession and sequence are those of the human protein
MAPKAPK2 (human) = MAPKAPK2 (human) (UniProt P49137); settings: ATP 100 µM
PRKACA or PRKACB (cow) = settings: accession and sequence are those of the human protein
MAPK1 (mouse) = settings: ATP 100 µM, accession and sequence are those of the human protein
CHEK1 (human) = CHEK1 (human) (UniProt O14757); settings: ATP 100 µM
MAPK12 (human) = MAPK12 (human) (UniProt P53778); settings: ATP 100 µM
LCK (human) = LCK (human) (UniProt P06239); settings: ATP 100 µM
GSK3B (human) = GSK3B (human) (UniProt P49841); settings: ATP 100 µM
MAPK13 (human) = MAPK13 (human) (UniProt O15264); settings: ATP 100 µM
PRKCA (human) = PRKCA (human) (UniProt P17252); settings: ATP 100 µM
RPS6KA1 (human) = RPS6KA1 (human) (UniProt Q15418); settings: ATP 100 µM
MYLK2 (human) = MYLK2 (human) (UniProt Q9H1R3); settings: compound 20.0 µM; ATP 100 µM
MYLK (human) = MYLK (human) (UniProt Q15746); settings: compound 20.0 µM; ATP 100 µM

Sequence of MAPK13 (human) (O15264 whole entry, looked up): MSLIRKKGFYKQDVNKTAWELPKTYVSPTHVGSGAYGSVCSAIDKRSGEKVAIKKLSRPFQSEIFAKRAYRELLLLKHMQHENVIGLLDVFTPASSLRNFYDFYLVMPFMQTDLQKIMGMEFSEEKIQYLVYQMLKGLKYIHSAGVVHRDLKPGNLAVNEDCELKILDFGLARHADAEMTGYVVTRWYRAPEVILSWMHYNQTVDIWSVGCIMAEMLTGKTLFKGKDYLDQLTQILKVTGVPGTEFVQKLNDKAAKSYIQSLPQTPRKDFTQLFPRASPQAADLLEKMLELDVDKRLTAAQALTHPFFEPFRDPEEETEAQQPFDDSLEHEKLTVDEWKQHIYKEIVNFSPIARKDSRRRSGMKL
Sequence of MAPK11 (human) (Q15759 whole entry, looked up): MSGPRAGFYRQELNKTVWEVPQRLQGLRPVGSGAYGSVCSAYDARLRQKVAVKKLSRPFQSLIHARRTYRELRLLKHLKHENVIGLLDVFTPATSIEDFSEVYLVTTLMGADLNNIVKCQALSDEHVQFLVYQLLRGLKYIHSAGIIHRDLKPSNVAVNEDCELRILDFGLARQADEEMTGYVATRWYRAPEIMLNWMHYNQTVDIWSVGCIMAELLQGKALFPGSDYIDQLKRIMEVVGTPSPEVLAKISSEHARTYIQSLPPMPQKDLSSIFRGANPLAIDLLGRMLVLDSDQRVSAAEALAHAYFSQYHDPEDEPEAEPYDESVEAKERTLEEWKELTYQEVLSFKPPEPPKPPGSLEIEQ
Sequence of RPS6KB1 (human), P23443 [T412E] (P23443 whole entry T412E, looked up): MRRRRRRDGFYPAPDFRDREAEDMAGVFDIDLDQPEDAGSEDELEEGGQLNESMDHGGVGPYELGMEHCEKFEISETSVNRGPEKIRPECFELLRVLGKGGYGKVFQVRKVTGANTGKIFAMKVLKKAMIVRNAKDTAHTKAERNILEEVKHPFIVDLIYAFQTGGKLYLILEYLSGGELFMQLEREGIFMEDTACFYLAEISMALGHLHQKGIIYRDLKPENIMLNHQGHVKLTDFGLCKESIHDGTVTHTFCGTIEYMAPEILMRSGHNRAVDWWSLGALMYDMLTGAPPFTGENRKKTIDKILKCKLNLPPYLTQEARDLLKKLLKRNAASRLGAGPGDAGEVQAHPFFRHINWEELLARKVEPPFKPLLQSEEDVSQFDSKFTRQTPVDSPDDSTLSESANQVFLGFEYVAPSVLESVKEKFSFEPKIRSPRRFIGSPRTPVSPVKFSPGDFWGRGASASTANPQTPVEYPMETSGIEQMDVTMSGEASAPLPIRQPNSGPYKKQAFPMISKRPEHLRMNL
Sequence of MAPK8 (human) (P45983 whole entry, looked up): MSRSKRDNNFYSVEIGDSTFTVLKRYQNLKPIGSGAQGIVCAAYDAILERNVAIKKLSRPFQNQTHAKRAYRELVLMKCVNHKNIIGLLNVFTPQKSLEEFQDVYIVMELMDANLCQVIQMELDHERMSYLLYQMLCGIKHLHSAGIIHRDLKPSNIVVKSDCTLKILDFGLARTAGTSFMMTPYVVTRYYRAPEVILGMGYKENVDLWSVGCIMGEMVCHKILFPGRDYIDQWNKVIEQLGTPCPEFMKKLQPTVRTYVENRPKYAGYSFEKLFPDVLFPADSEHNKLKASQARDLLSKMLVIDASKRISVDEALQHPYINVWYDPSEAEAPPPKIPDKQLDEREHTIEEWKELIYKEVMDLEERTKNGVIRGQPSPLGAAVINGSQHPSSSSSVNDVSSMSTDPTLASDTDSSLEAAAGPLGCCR
Sequence of MAPK14 (human) (Q16539 whole entry, looked up): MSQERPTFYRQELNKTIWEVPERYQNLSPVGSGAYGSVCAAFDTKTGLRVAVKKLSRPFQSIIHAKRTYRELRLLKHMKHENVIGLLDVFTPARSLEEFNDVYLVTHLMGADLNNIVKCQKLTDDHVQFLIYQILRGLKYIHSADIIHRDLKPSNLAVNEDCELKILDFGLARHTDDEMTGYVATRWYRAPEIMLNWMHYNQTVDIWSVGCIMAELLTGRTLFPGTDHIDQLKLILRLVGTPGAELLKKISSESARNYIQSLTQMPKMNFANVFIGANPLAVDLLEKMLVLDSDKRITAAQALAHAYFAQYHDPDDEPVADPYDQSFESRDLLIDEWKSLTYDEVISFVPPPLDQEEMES
Sequence of MAPKAPK2 (human) (P49137 whole entry, looked up): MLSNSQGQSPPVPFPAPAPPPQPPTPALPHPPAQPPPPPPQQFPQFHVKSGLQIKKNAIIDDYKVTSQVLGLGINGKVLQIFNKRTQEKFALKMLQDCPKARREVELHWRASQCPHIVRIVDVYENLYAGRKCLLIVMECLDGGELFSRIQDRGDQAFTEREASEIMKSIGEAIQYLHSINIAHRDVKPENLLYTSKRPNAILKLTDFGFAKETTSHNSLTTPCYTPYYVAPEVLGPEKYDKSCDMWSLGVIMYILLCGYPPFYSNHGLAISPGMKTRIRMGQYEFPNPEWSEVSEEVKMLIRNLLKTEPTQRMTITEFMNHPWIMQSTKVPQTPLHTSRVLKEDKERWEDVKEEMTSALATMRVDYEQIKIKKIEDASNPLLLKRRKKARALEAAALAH
Sequence of MAPK12 (human) (P53778 whole entry, looked up): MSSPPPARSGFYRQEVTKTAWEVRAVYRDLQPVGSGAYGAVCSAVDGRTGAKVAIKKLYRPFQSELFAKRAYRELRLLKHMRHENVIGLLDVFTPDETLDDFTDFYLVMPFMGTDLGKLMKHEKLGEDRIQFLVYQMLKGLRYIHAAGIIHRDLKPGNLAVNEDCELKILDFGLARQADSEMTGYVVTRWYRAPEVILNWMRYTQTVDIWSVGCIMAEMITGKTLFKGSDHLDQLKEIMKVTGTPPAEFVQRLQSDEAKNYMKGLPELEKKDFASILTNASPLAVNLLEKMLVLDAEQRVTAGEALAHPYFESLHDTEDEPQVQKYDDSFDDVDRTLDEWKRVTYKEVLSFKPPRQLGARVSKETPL
Sequence of CHEK1 (human) (O14757 whole entry, looked up): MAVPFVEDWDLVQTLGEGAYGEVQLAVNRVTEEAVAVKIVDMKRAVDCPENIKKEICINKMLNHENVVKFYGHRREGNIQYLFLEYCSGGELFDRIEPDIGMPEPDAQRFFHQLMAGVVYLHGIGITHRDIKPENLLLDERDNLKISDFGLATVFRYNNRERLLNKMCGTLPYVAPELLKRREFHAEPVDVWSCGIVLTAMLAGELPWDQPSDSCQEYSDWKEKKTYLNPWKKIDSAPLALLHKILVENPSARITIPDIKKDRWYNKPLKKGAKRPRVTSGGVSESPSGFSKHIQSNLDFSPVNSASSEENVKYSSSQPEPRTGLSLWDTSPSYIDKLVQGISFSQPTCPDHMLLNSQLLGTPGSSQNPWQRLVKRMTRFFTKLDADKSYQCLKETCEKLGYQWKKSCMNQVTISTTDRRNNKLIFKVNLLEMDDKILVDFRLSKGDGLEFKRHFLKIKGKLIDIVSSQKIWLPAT
Sequence of PDPK1 (human) (O15530 whole entry, looked up): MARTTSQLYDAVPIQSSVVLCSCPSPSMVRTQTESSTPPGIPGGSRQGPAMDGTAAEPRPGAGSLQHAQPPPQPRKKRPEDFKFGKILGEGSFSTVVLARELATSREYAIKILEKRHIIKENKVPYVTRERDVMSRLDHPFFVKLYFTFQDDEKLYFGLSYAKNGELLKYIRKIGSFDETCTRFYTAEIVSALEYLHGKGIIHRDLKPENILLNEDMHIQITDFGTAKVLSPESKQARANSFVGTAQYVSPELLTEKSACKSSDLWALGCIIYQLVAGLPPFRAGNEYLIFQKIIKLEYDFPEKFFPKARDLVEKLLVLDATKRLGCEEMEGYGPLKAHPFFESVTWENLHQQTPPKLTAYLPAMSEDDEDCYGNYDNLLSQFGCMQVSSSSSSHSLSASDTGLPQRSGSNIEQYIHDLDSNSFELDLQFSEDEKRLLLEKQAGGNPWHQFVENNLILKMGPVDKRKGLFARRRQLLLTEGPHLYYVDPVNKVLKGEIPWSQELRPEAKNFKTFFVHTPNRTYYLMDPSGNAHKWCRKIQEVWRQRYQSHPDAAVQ
Sequence of MAPKAPK5 (human) (Q8IW41 whole entry, looked up): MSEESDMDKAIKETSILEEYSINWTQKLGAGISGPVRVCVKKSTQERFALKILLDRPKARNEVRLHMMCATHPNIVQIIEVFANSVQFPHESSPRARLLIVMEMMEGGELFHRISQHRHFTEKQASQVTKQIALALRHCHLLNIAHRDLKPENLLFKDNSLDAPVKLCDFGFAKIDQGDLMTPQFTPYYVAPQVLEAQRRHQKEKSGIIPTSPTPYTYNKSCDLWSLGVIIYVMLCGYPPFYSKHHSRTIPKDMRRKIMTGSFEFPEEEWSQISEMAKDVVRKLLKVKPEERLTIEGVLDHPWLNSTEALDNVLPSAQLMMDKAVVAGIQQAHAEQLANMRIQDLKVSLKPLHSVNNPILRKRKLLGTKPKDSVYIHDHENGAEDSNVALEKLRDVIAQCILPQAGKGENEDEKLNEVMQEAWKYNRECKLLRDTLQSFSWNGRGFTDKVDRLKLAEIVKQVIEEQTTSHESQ
Sequence of AKT1 (human) (P31749 whole entry, looked up): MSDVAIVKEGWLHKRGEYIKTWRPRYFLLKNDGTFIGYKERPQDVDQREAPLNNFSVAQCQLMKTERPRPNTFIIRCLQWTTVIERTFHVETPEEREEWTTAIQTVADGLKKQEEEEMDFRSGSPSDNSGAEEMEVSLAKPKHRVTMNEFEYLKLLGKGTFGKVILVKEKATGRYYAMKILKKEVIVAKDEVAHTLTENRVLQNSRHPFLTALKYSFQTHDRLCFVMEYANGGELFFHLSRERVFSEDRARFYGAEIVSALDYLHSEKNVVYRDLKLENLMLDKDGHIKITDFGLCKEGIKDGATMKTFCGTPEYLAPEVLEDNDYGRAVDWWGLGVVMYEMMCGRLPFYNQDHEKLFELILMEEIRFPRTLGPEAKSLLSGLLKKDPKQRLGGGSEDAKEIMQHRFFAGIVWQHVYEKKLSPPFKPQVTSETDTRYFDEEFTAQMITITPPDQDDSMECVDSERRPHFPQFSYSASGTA

Compound: COC(=O)[C@@]1(OC)C[C@@H]2O[C@]1(C)n1c3ccccc3c3c4c(c5c6ccccc6n2c5c31)C(=O)N(C)C4
- residual activity (PHKG1 or PHKG2 (rabbit); compound 10.0 µM): 99%
- residual activity (MAPK14 (human); compound 10.0 µM): 102%
- residual activity (DYRK1A (rat); compound 10.0 µM): 112%
- residual activity (CSK (human); compound 10.0 µM): 93%
- residual activity ([1]; compound 10.0 µM): 98%
- residual activity (RPS6KA1 (rat); compound 10.0 µM): 105%
- residual activity (RPS6KA5 KD1 KD2 (human); compound 10.0 µM): 74%
- residual activity (MAPK8 (human); compound 10.0 µM): 99%
- residual activity (ROCK2 (rat); compound 10.0 µM): 97%
- residual activity (PRKG1 (human)): 109%
- residual activity (AKT1 (human); compound 10.0 µM): 83%
- residual activity (MAPK11 (human); compound 10.0 µM): 100%
- residual activity (PDPK1 (human); compound 10.0 µM): 114%
- residual activity (CDK2 CCNA2 (human); compound 10.0 µM): 94%
- residual activity (PRKAA1 or PRKAA2 (rat); compound 10.0 µM): 90%
- residual activity ([2]; compound 10.0 µM): 72%
- residual activity (MAPKAPK5 (human); compound 10.0 µM): 83%
- residual activity ([3]; compound 10.0 µM): 90%
- residual activity (CSNK1A1 (rat); compound 10.0 µM): 83%
- residual activity (MAP2K1 (rabbit); compound 10.0 µM): 99%
- residual activity (MAPKAPK2 (human); compound 10.0 µM): 71%
- residual activity (PRKACA or PRKACB (cow); compound 10.0 µM): 102%
- residual activity (MAPK1 (mouse); compound 10.0 µM): 106%
- residual activity (CHEK1 (human); compound 10.0 µM): 93%
- residual activity (MAPK12 (human); compound 10.0 µM): 103%
- residual activity (LCK (human); compound 10.0 µM): 94%
- residual activity (GSK3B (human); compound 10.0 µM): 52%
- residual activity (MAPK13 (human); compound 10.0 µM): 105%
- residual activity (PRKCA (human); compound 10.0 µM): 102%

Compound: CC(C)[C@H](CO)Nc1nc(Nc2cccc(Cl)c2)c2ncn(C(C)C)c2n1
- residual activity (PHKG1 or PHKG2 (rabbit); compound 10.0 µM): 36%
- residual activity (MAPK14 (human); compound 10.0 µM): 101%
- IC50 (DYRK1A (rat)): 300 nM
- residual activity (DYRK1A (rat); compound 10.0 µM): 6%
- IC50 (RPS6KA1 (human)): 1490 nM
- residual activity (CSK (human); compound 10.0 µM): 20%
- residual activity ([1]; compound 10.0 µM): 95%
- residual activity (RPS6KA1 (rat); compound 10.0 µM): 15%
- residual activity (RPS6KA5 KD1 KD2 (human); compound 10.0 µM): 88%
- residual activity (MAPK8 (human); compound 10.0 µM): 84%
- residual activity (ROCK2 (rat); compound 10.0 µM): 57%
- residual activity (AKT1 (human); compound 10.0 µM): 88%
- residual activity (MAPK11 (human); compound 10.0 µM): 117%
- residual activity (PDPK1 (human); compound 10.0 µM): 103%
- residual activity (CDK2 CCNA2 (human); compound 10.0 µM): 2%
- residual activity (PRKAA1 or PRKAA2 (rat); compound 10.0 µM): 59%
- residual activity ([2]; compound 10.0 µM): 91%
- residual activity (MAPKAPK5 (human); compound 10.0 µM): 76%
- residual activity ([3]; compound 10.0 µM): 79%
- residual activity (CSNK1A1 (rat); compound 10.0 µM): 75%
- residual activity (MAP2K1 (rabbit); compound 10.0 µM): 80%
- residual activity (MAPKAPK2 (human); compound 10.0 µM): 97%
- residual activity (PRKACA or PRKACB (cow); compound 10.0 µM): 82%
- residual activity (MAPK1 (mouse); compound 10.0 µM): 26%
- residual activity (CHEK1 (human); compound 10.0 µM): 78%
- residual activity (MAPK12 (human); compound 10.0 µM): 105%
- residual activity (LCK (human); compound 10.0 µM): 22%
- residual activity (GSK3B (human); compound 10.0 µM): 84%
- residual activity (MAPK13 (human); compound 10.0 µM): 98%

- residual activity (MYLK2 (human)): 63%
- residual activity (PHKG1 or PHKG2 (rabbit); compound 20.0 µM): 85%
- residual activity (MAPK14 (human); compound 20.0 µM): 100%
- residual activity (DYRK1A (rat); compound 20.0 µM): 66%
- residual activity (CSK (human); compound 20.0 µM): 94%
- residual activity ([1]; compound 20.0 µM): 83%
- residual activity (RPS6KA1 (rat); compound 20.0 µM): 99%
- residual activity (RPS6KA5 KD1 KD2 (human); compound 20.0 µM): 59%
- residual activity (MAPK8 (human); compound 20.0 µM): 97%
- residual activity (ROCK2 (rat); compound 20.0 µM): 74%
- residual activity (MYLK (human)): 10%
- residual activity (AKT1 (human); compound 20.0 µM): 88%
- residual activity (MAPK11 (human); compound 20.0 µM): 89%
- residual activity (PDPK1 (human); compound 20.0 µM): 107%
- residual activity (CDK2 CCNA2 (human); compound 20.0 µM): 73%
- residual activity (PRKAA1 or PRKAA2 (rat); compound 20.0 µM): 82%
- residual activity ([2]; compound 20.0 µM): 101%
- residual activity (MAPKAPK5 (human); compound 20.0 µM): 78%
- residual activity ([3]; compound 20.0 µM): 74%
- residual activity (CSNK1A1 (rat); compound 20.0 µM): 106%
- residual activity (MAP2K1 (rabbit); compound 20.0 µM): 102%
- residual activity (MAPKAPK2 (human); compound 20.0 µM): 93%
- residual activity (PRKACA or PRKACB (cow); compound 20.0 µM): 85%
- residual activity (MAPK1 (mouse); compound 20.0 µM): 85%
- residual activity (CHEK1 (human); compound 20.0 µM): 94%
- residual activity (MAPK12 (human); compound 20.0 µM): 95%
- residual activity (LCK (human); compound 20.0 µM): 87%
- residual activity (GSK3B (human); compound 20.0 µM): 107%
- residual activity (MAPK13 (human); compound 20.0 µM): 75%
- residual activity (PRKCA (human); compound 20.0 µM): 85%
Compound: O=S(=O)(c1cccc2c(I)cccc12)N1CCCNCC1
